Converted amounts (≈) assume the structure as drawn.
Legend:
[1] = system: SW-480 human colon adenocarcinoma cells; experiment: Growth inhibition, MTT assay, SW-480; type: cell-based; conditions: for Activity relative to tubulysin D in SW-480, in words: colon cancer cell line SW-480
Description: (§1) Cell lines were obtained from the American Type Culture Collection (ATCC) and the German Collection of Microorganisms and Cell Cultures (DSMZ). All cell lines were cultivated under conditions recommended by their respective depositors. Growth inhibition was measured in microtiter plates. Aliquots of 120 μl of the suspended cells (50,000/mL) were given to 60 μL of a serial dilution of the inhibitor and incubated at 37° C. and 10% CO2. After 5 days, when control cells had grown to confluence state, the metabolic activity in each well was determined using an MTT assay.

[2] = system: L929 mouse fibroblast cells; experiment: Growth inhibition, MTT assay, L929; type: cell-based; conditions: for Cytotoxicity / activity relative to tubulysin D, in words: statement on Table 2 cell lines
Description: as §1

[3] = system: KB-3-1 human cervix carcinoma cells; experiment: Growth inhibition, MTT assay, KB-3-1; type: cell-based; conditions: KB 3-1, 120 h; human cervix carcinoma (DSMZ ACC 158); MTT after 5 days; read-out: IC50 (ng/mL) KB-3-1
Description: as §1

[4] = Growth inhibition, MTT assay, L929; type: cell-based, Mouse; conditions: mouse, L929 mouse fibroblast cells; cell line not given; read-out: Cytotoxicity (text, refers to Table 2)
Description: as §1

## CC[C@H](C)[C@H](NC(=O)[C@H]1CCCCN1C)C(=O)N(C)[C@H](C[C@@H](OC(C)=O)c1nc(C(=O)N[C@@H](Cc2ccccc2)C[C@H](C)C(=O)O)cs1)C(C)C [Analogue 10, 4-({2-[1-Acetoxy-4-methyl-3-(methyl-{3-methyl-2-[(1-methyl-piperidine-2-carbonyl)-amino]-pentanoyl}-amino)-pentyl]-thiazole-4-carbonyl}-amino)-2-methyl-5-phenyl-pentanoic acid]
[1]
  Activity relative to tubulysin D in SW-480, in words: more active than tubulysin D

## CC[C@H](C)[C@H](NC(C)=O)C(=O)N(COC(=O)CC(C)C)[C@H](C[C@@H](OC(C)=O)c1nc(C(=O)N[C@@H](Cc2ccccc2)C[C@H](C)C(=O)O)cs1)C(C)C [Analogue 7]
[2]
  Cytotoxicity / activity relative to tubulysin D, in words: drastic decrease in activity

## CC[C@H](C)[C@H](NC(=O)[C@H]1CCCCN1C)C(=O)N(COC(=O)CC(C)C)[C@H](C[C@@H](OC(C)=O)c1nc(C(=O)O)cs1)C(C)C [Analogue 5, 2-[1-acetoxy-4-methyl-3-((3-methyl-butyryloxymethyl)-{3-methyl-2-[(1-methyl-piperidine-2-carbonyl)-amino]-pentanoyl}-amino)-pentyl]-thiazole-4-carboxylic acid]
[2]
  Cytotoxicity / activity relative to tubulysin D, in words: maintained good activity

## CC[C@H](C)[C@H](NC(=O)[C@H]1CCCCN1C)C(=O)N(COC(=O)CC(C)C)[C@H](C[C@@H](OC(C)=O)c1nc(C(=O)NCCCC(=O)O)cs1)C(C)C [Analogue 3, 3-Methyl-butyric acid ((1-{2-acetoxy-2-[4-(3-carboxy-propylcarbamoyl)-thiazol-2-yl]-ethyl}-2-methyl-propyl)-{3-methyl-2-[(1-methyl-piperidine-2-carbonyl)-amino]-pentanoyl}-amino)-methyl ester]
[2]
  Cytotoxicity / activity relative to tubulysin D, in words: cytoxicity comparable to the parent tubulysin

## CC[C@H](C)[C@H](NC(=O)CN(C)C)C(=O)N(COC(=O)CC(C)C)[C@H](C[C@@H](OC(C)=O)c1nc(C(=O)N[C@@H](Cc2ccccc2)C[C@H](C)C(=O)O)cs1)C(C)C [Analogue 6, 4-[(2-{1-acetoxy-3-[[2-(2-dimethylamino-acetylamino)-3-methyl-pentanoyl]-(3-methyl-butyryloxymethyl)-amino]-4-methyl-pentyl}-thiazole-4-carbonyl)-amino]-2-methyl-5-phenyl-pentanoic acid]
[2]
  Cytotoxicity / activity relative to tubulysin D, in words: essentially equipotent with tubulysin D
[1]
  Activity relative to tubulysin D in SW-480, in words: more active than tubulysin D

## CC[C@H](C)[C@H](N=[N+]=[N-])C(=O)N(COC(=O)CC(C)C)[C@H](C[C@@H](OC(C)=O)c1nc(C(=O)N[C@@H](Cc2ccccc2)C[C@H](C)C(=O)O)cs1)C(C)C [Analogue 8, 4-[(2-{1-acetoxy-3-[(2-azido-3-methyl-pentanoyl)-(3-methyl-butyryloxymethyl)-amino]-4-methyl-pentyl}-thiazole-4-carbonyl)-amino]-2-methyl-5-phenyl-pentanoic acid]
[2]
  Cytotoxicity / activity relative to tubulysin D, in words: drastic decrease in activity

## CC[C@H](C)[C@H](NC(=O)[C@H]1CCCCN1C)C(=O)N(COC(=O)CC(C)C)[C@H](C[C@@H](OC(C)=O)c1nc(C(=O)NC)cs1)C(C)C [Analogue 4, 3-methyl-butyric acid ({1-[2-acetoxy-2-(4-methylcarbamoyl-thiazol-2-yl)-ethyl]-2-methyl-propyl}-{3-methyl-2-[(1-methyl-piperidine-2-carbonyl)-amino]-pentanoyl}-amino)-methyl ester]
[2]
  Cytotoxicity / activity relative to tubulysin D, in words: maintained good activity

## CC[C@H](C)[C@H](NC(=O)[C@H]1CCCCN1C)C(=O)N(COC(=O)CC(C)C)[C@H](C[C@@H](O)c1nc(C(=O)N[C@@H](Cc2ccccc2)C[C@H](C)C(=O)O)cs1)C(C)C [Analogue 9]
[2]; L929, 120 h, mouse fibroblasts (DSMZ ACC 2), MTT after 5 days, read-out: IC50 (ng/mL) L929
  IC50: 0.25 ng/mL (≈ 0.318 nM)
[2]
  Cytotoxicity / activity relative to tubulysin D, in words: minimal drop in cytotoxicity relative to the natural product
[1]; SW480, 120 h, human colon adenocarcinoma (ATCC CCL-228), MTT after 5 days, read-out: IC50 (ng/mL) SW-480
  IC50: 0.057 ng/mL (≈ 0.0725 nM)
[3]
  IC50: 0.22 ng/mL (≈ 0.28 nM)

## CC[C@H](C)[C@H](NC(=O)[C@H]1CCCCN1C)C(=O)N(C)[C@H](C[C@@H](OC(C)=O)c1nc(C(=O)NC)cs1)C(C)C [Analogue 11, acetic acid 4-methyl-1-(4-methylcarbamoyl-thiazol-2-yl)-3-(methyl-{3-methyl-2-[(1-methyl-piperidine-2-carbonyl)-amino]-pentanoyl}-amino)-pentyl ester]
[4]
  IC50 at 5 days: 2 ng/mL (≈ 3.62 nM)

## CC[C@H](C)[C@H](NC(=O)[C@H]1CCCCN1C)C(=O)N(COC(=O)CC(C)C)[C@H](C[C@@H](OC(C)=O)c1nc(C(=O)NCCc2ccccc2)cs1)C(C)C [Analogue 2, 3-methyl-butyric acid ({1-[2-acetoxy-2-(4-phenethylcarbamoyl-thiazol-2-yl)-ethyl]-2-methyl-propyl}-{3-methyl-2-[(1-methyl-piperidine-2-carbonyl)-amino]-pentanoyl}-amino)-methyl ester]
[2]
  Cytotoxicity / activity relative to tubulysin D, in words: cytoxicity comparable to the parent tubulysin

From US8476451B2 (priority 2007, dated 2013)
